Results as given in patent US11466003B2, “Nitrogenous heterocyclic aromatic compound, preparation method therefor, pharmaceutical composition thereof, and application thereof” (SHANGHAI YINGLI PHARMACEUTICAL CO., LTD, priority 2016, dated 2022).

What follows are compounds tested against ALK5 (Homo sapiens (Human), UniProt P36897) (assay: Evaluation of IC50 of inhibitory activity toward ALK5 enzyme (ADP-Glo kinase assay)). Conditions: 25 nM ALK5, 0.1 mg/mL peptide TGFbR1, 7 μM ATP, 30° C. 1 hour, ADP-Glo luminescence.
Chain of ALK5 (P36897 34-503, species assumed): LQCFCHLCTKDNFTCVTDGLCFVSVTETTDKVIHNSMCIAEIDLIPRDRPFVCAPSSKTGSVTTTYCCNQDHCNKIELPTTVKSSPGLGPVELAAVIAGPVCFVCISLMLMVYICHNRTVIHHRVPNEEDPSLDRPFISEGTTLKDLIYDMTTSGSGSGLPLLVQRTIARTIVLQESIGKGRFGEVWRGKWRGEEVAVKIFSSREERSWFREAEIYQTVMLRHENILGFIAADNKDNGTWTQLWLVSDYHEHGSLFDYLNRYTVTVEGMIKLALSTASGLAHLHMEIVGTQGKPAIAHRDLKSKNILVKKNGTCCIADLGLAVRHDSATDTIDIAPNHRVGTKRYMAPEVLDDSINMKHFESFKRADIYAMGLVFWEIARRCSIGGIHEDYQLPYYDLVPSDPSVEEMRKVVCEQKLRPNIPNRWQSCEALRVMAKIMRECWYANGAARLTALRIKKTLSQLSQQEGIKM
Type: biochemical
Experimental: 5. […] The value of the luminescence reading was converted to % inhibition by formula (% inhibition=(max−sample RLU)/(max−min)×100, wherein, “min” refers to control fluorescence reading of reaction of no enzyme; “max” refers to the fluorescence reading of the sample with DMSO added as a control. The data was imported into MS Excel and curve fitting was performed using GraphPad Prism. IC50 values was calculated.

SMILES | IC50
CNC(=O)c1cnc2ccc(-c3ccccc3-c3cccc(C)n3)cn12 [Compound 3] | 27 nM
Cc1cccc(-c2ccccc2-c2ccc3ncc(C(=O)N(C)C)n3c2)n1 [Compound 5] | 243 nM
Cc1cccc(-c2ccccc2-c2ccc3nccn3c2)n1 [Compound 11] | 145 nM
Cc1cccc(-c2ccccc2-c2ccc3ncnc(N)c3c2)n1 [Compound 13] | 337 nM
Cc1cccc(-c2ccccc2-c2ccn3ncc(C(N)=O)c3c2)n1 [Compound 14] | 53 nM
Cc1cccc(-c2ccccc2-c2ccc3ncnn3c2)n1 [Compound 15] | 360 nM
Cc1cccc(-c2ccccc2-c2ccc3[nH]ncc3c2)n1 [Compound 16] | 1300 nM
Cc1cccc(-c2ccccc2-c2ccc3nncn3c2)n1 [Compound 17] | > 10000 nM
Cc1cccc(-c2ccccc2-c2ccc3c(cnn3C(N)=O)c2)n1 [Compound 19] | > 10000 nM
Cc1cccc(-c2ccccc2-c2ccc3ncc(C#N)n3c2)n1 [Compound 20] | 535 nM
Cc1cccc(-c2ccccc2-c2ccc3ncc(-c4nnn[nH]4)n3c2)n1 [Compound 21] | 72 nM
Cc1cccc(-c2ccccc2-c2ccc3ncc(N)n3c2)n1 [Compound 22] | 560 nM
COc1cccc(-c2ccccc2-c2ccc3ncc(C(N)=O)n3c2)n1 [Compound 24] | 45 nM
Cc1cccc(-c2ccc(C#N)cc2-c2ccc3ncc(C(N)=O)n3c2)n1 [Compound 25] | 73 nM
Cc1nc(-c2ccccc2-c2ccc3ncc(C(N)=O)n3c2)cs1 [Compound 27] | 193 nM
Cc1cccc(-c2ccccc2-c2ccc3ncc(NC=O)n3c2)n1 [Compound 28] | 674 nM
Cc1cccc(-c2ccccc2-c2ccc3nc(C)c(C(N)=O)n3c2)n1 [Compound 30] | 2930 nM
Cc1cccc(-c2ccccc2-c2ccc3occ(C(N)=O)c3c2)n1 [Compound 33] | 221 nM
Cc1cccc(-c2ccccc2-c2ccc3ncc(S(N)(=O)=O)n3c2)n1 [Compound 34] | 581 nM
Cc1cccc(-c2ccc(C(N)=O)cc2-c2ccc3ncc(C(N)=O)n3c2)n1 [Compound 37] | 63 nM
Cc1cccc(-c2ccccc2-c2ccc3nc[nH]c(=O)c3c2)n1 [Compound 49] | 102 nM
Cc1cccc(-c2ccccc2-c2ccc3ncc(C(N)=O)nc3c2)n1 [Compound 52] | 415 nM
Cc1cccc(-c2ccccc2-c2ccc3ncc(C(N)=O)n3n2)n1 [Compound 54] | 98 nM
Cc1cccc(-c2ccc(OCc3ccccc3F)cc2-c2ccc3ncc(C(N)=O)n3c2)n1 [Compound 55] | 13 nM
Cc1cccc(-c2cc3nccn3cc2-c2ccc3ncc(C(N)=O)n3c2)n1 [Compound 57] | 56 nM
Cc1cccc(-c2ccccc2-c2ccc3ncc(C(=O)NC4CC4)n3c2)n1 [Compound 58] | 46 nM
Cc1cccc(-c2ccc(Oc3ccccc3F)cc2-c2ccc3ncc(C(N)=O)n3c2)n1 [Compound 59] | 39 nM
Cc1cccc(-c2ccccc2-c2ccc3ncc(C(=O)NCCN4CCOCC4)n3c2)n1 [Compound 60] | 64 nM
Cc1cccc(-c2ccccc2-c2ccc3ncc(C(=O)NC4CCOCC4)n3c2)n1 [Compound 61] | 114 nM
Cc1cccc(-c2ccccc2-c2ccnc3ccc(C(N)=O)cc23)n1 [Compound C-1, reference compound] | > 10000 nM

Results, then the compound that gave them:

IC50 | SMILES
192 nM | Cc1cccc(-c2ccccc2-c2ccc3ncc(C(=O)O)n3c2)n1 [Compound 1]
16.5 nM | Cc1cccc(-c2ccccc2-c2ccc3ncc(C(N)=O)n3c2)n1 [Compound 2]
5700 nM | Cc1cccc(-c2ccccc2-c2ccc3ncc(CN)n3c2)n1 [Compound 4]
82 nM | Cc1cccc(-c2c(F)cccc2-c2ccc3ncc(C(N)=O)n3c2)n1 [Compound 6]
85 nM | NC(=O)c1cnc2ccc(-c3ccccc3-c3ccccn3)cn12 [Compound 7]
45 nM | Cc1cccc(-c2cccc(F)c2-c2ccc3ncc(C(N)=O)n3c2)n1 [Compound 8]
16 nM | Cc1cccc(-c2ccc(F)cc2-c2ccc3ncc(C(N)=O)n3c2)n1 [Compound 9]
35 nM | Cc1cccc(-c2cc(F)ccc2-c2ccc3ncc(C(N)=O)n3c2)n1 [Compound 10]
45 nM | Cc1cccc(-c2ccccc2-c2ccc3ncc(C(=O)NO)n3c2)n1 [Compound 12]
4740 nM | Cc1cccc(-c2ccccc2-c2ccc3nnc(C(N)=O)n3c2)n1 [Compound 18]
110 nM | Cc1cccc(-c2ccncc2-c2ccc3ncc(C(N)=O)n3c2)n1 [Compound 23]
38 nM | Cc1csc(-c2ccccc2-c2ccc3ncc(C(N)=O)n3c2)n1 [Compound 26]
38 nM | COc1ccc(-c2cccc(C)n2)c(-c2ccc3ncc(C(N)=O)n3c2)c1 [Compound 29]
126 nM | Cc1cccc(-c2ccccc2-c2ccc3ncc(C)n3c2)n1 [Compound 31]
339 nM | Cc1ccn(-c2ccccc2-c2ccc3ncc(C(N)=O)n3c2)n1 [Compound 32]
579 nM | Cc1cccc(-c2ccccc2-c2ccc3ncc(C(=N)N)n3c2)n1 [Compound 35]
18 nM | Cc1nc(-c2ccccc2-c2ccc3ncc(C(N)=O)n3c2)ccc1F [Compound 38]
196 nM | Cc1nc(-c2ccccc2-c2ccc3ncc(C(N)=O)n3c2)ccc1Cl [Compound 39]
12 nM | Cc1ccc(F)c(-c2ccccc2-c2ccc3ncc(C(N)=O)n3c2)n1 [Compound 40]
144 nM | Cc1ccnc(-c2ccccc2-c2ccc3ncc(C(N)=O)n3c2)n1 [Compound 42]
322 nM | Cc1cncc(-c2ccccc2-c2ccc3ncc(C(N)=O)n3c2)n1 [Compound 44]
15 nM | NC(=O)c1cnc2ccc(-c3ccccc3-c3cccc(C(F)(F)F)n3)cn12 [Compound 45]
126 nM | Cn1ccc(-c2ccccc2-c2ccc3ncc(C(N)=O)n3c2)n1 [Compound 47]
237 nM | Cc1nccc(-c2ccccc2-c2ccc3ncc(C(N)=O)n3c2)n1 [Compound 48]
6.9 nM | Cc1cccc(-c2cscc2-c2ccc3ncc(C(N)=O)n3c2)n1 [Compound 53]
74 nM | Cc1coc(-c2ccccc2-c2ccc3ncc(C(N)=O)n3c2)n1 [Compound 63]
